Tests used:
[1] = target: T1, hIGF-IIR and IgG1 (ternary complex) (Homo sapiens, UniProt P01857+P11717); assay: HTRF-based ternary complex formation assay for hIGF-IIR targeting Extracellular Protein Degraders; assay type: binding
T1 construct: purchased R&D Systems 6418-GR
Source text: The ternary complex formation assay is designed to identify and determine the potency of Extracellular Protein Degrader molecules which can induce the formation of ternary complex between the Extracellular Protein Degrader hIGF-IIR. Titrating Extracellular Protein Degrader to fixed amount of hIGF-IIR results in a bell-shaped curve (except molecules whose binary complex affinity between Extracellular Protein Degrader and hIGF-IIR). The peak mean represents Extracellular Protein Degrader concentration at which maximum ternary complex is formed. Too much or too little Extracellular Protein Degrader leads to decreased ternary complex formation due to formation of binary complex (Hook effect). Dose response of Extracellular Protein Degrader compounds (16-point 3-fold dilution series, 100X) were prepared by Echo Acoustic Liquid Handler (Beckman Coulter Life Sciences) using 384-well LDV microplate. Then 200 nL of the solutions were transferred to an OptiPlate 384-well microplate (PerkinElmer, 6007290). To the assay plate, 10 μL working solution containing 60 nM of Biotinylated-IgG1 (Viva 20211108) and 60 nM of His-tagged hIGF-IIR (R&D Systems, 6418-GR) in assay buffer 50 mM Tris, pH 7.5, 150 mM NaCl, 50 mM CaCl2, 0.01% Tween-20 were added. The plate was incubated for 60 min at room temperature with gentle shaking to allow molecular interaction to reach equilibration. Following this, 10 μL of HTRF detection solution containing 15 nM Streptavidin-d2 (PerkinElmer, 610SADLA) and 0.7 nM MAb Anti 6HIS—Tb cryptate (PerkinElmer, 61HISTLA) in PPI Terbium detection buffer (PerkinElmer, 61DB10RDF) were added. The assay plate was incubated at room temperature with gentle shaking for 60 min to allow HTRF signal to develop. The plate was gently spun on a centrifuge then placed on an EnVision plate reader (Perkin Elmer, EnVision 2104) to read fluorescence ratio of 665 nm/615 nm. Data were analyzed by fitting with Bell-shaped non-linear regression model using GraphPad Prism (GraphPad Software, LLC; version 9.4.1). Mean fluorescence intensity is graphed versus compound concentration and the EC50 for TCF is calculated from the inflection point of the curve (GraphPad).

K562 cells = assay: Ternary complex formation (TCF) in K562 cells, flow cytometry with AF488-labeled human IgG; assay type: cell-based; conditions: AF488-labeled human IgG 300 nM, 4° C., 1 hour
Procedure: K562 cells were seeded in 96-well assay plate using K562 cell medium, then compounds and AF488-labeled human IgG (final concentration of 300 nM) were added at 4° C. and incubated for 1 hour. Afterwards, the cells were washed once with 1×PBS+0.1% BSA (Cold) and centrifuged at 1000 rpm for 5 minutes. Next, cells were re-suspended in 150 μL 1×PBS+0.1% BSA and ran flow cytometry on iQue® Screener PLUS.

IgG = assay: Uptake and degradation in K562 cells (Western blot); assay type: cell-based, human; conditions: K562 cells treated with compound and IgG; FIG. 14-17
Procedure: On day one, cells were harvested, counted, and seeded 1 million/well in 6 well plates for each cell line. On day two, cells were treated with compounds and IgG (Sigma, Cat #14506 dissolved in medium). Treated cells were washed three times with PBS, followed by addition of 200 μL of RIPA buffer (+HALT protease and phosphatase inhibitors) per well. Lysates were left on ice for 5 minutes then were collected into microcentrifuge tubes using a cell scraper. Lysates were then kept on a shaker for 30-60 minutes at 4° C. followed by centrifugation at 14,000 rpm at 4° C. for 15 minutes. Then, supernatants were transferred to fresh tubes and total protein concentration of each sample was determined using Pierce BCA kit. Next, 25 ug total protein of each sample was resolved on a 4-20% gels and transferred to PVDF membranes. Membranes were blocked in TBST+5% milk (made fresh) for one hour while shaking at room temperature. Then, the first antibody was added in TBST+5% milk at 4° C. overnight: a) Rabbit anti-human IgG, Abcam; Cat #ab181236-1:1000, b) anti-β-actin, Cell signaling Tech, Cat #3700S)-1:3000. On the next day, membranes were washed with TBST 10 minutes each for three times. Later, the second antibody was added in TBST+5% milk at room temperature over one hour: a) IRDye 800CW Goat anti Rabbit IgG, Licor, Cat #926-32211)-1:10,000; b) IRDye 680RD Goat anti Mouse IgG (Licor Cat #926-68078)-1:10,000. Then, membranes were washed with TBST 10 minutes each for three times. The results were detected by Licor. Data from the uptake and degradation assay is shown in FIG. 14, FIG. 15, FIG. 16, and FIG. 17.

human IgG (hIgG) = assay: DMPK study: degradation of coadministered human IgG in rats; assay type: in vivo; conditions: male SD rats, IgG 200 mg/kg IV, compound IV an hour later; FIG. 11, FIG. 12
Procedure: The dose formulation of IgG at 200 mg/kg was administered via IV injection to male SD rats, and Compound 5 was administered via IV injection an hour later (after IgG dosing). About 0.2 mL of blood was collected via jugular vein at each time point and was transferred into pre-cooled low binding EP tubes containing 4 μL of K2-EDTA (0.5 M) as anti-coagulant placed on wet ice. After blood was collected, the samples were processed for plasma by centrifugation at approximately 4° C., 3200 g for 10 minutes, the plasma was obtained within 30 minutes of blood collection. Then the plasma was transferred to two clean low binding EP tubes (50 μL each, one for PK, one for PD) and quickly frozen over dry ice and kept below −60° C. or lower for LC-MS/MS analysis. Plasma concentration versus time data was plotted in graph and analyzed by non-compartmental approaches using the Phoenix WinNonlin 6.3 software program. Related PK parameters were calculated according to dosing route, e.g. CL, Vdss and C0 for intravenous administration, Cmax, Tmax or % F for extravascular administration, and T1/2, AUC(0-1), AUC(0-inf), MRT(0-1), MRT(0-inf) for all routes. The quantification of human IgG concentration in animal plasma was conducted using human IgG ELISA kit. Plotted pharmacokinetic and pharmacodynamic data can be found in FIG. 10, FIG. 11, FIG. 12, and FIG. 13.

For `CC(C)C[C@@H]1NC(=O)[C@H](Cc2cnc[nH]2)NC(=O)[C@H](Cc2c[nH]c3ccccc23)NC(=O)[C@H](C)NC(=O)[C@@H]2CSSC[C@H](NC(=O)[C@H](Cc3c[nH]c4ccccc34)CC(=O)[C@H](C(C)C)NC(=O)[C@H](CC(C)C)NC(=O)[C@H](CCC(=O)O)NC(=O)CNC1=O)C(=O)N[C@@H]([C@@H](C)O)C(=O)N1CCC[C@@H]1C(=O)N1C[C@@H](NC(=O)COCCOCCOCC(=O)NC(COCCC(=O)NCCOCCn3cc(CCO[C@H]4O[C@H](CCP(=O)(O)O)[C@@H](O)[C@H](O)[C@@H]4O)nn3)(COCCC(=O)NCCOCCn3cc(CCO[C@H]4O[C@H](CCP(=O)(O)O)[C@@H](O)[C@H](O)[C@@H]4O)nn3)COCCC(=O)NCCOCCn3cc(CCO[C@H]4O[C@H](CCP(=O)(O)O)[C@@H](O)[C@H](O)[C@@H]4O)nn3)C[C@H]1C(=O)N[C@@H](CC(=O)O)C(=O)N2` [Compound 5], the EC50 [1] was under 50 nM, the EC50 (K562 cells) was 50 to 250 nM and the “degradation of IgG (gel electrophoresis image)” value (IgG) was “degradation of IgG”. For the same compound, the “degradation of coadministered human IgG (percent of initial hIgG over time)” value (human IgG (hIgG)) was “degradation of coadministered human IgG”.
